Test results taken from patent US20160101108A1, “PRINTED DOSAGE FORMS” (ÅBO AKADEMI UNIVERSITY, priority 2013, published 2016).

Experiment: Actual dose of vitamin on inkjet-printed areas, immersed in water, by UV/Vis absorbance
Type: physicochemical
Details: for Vitamin B3 dose, measured: 262 nm
Experimental: Two different ink solutions were used to print the vitamins onto the substrates. […] The solutions were filtered with 0.2 μm polypropylene membrane filter (Whatman, GE Healthcare, Piscataway, N.J., USA) before printing. Inkjet printing was performed with a […] printer (Fujifilm […] Clara, Calif., USA). In the printer, a MEMS-based cartridge-styled printhead with 16 nozzles linearly spaced at 254 μm that produce a nominal drop size of […] was used. Printing was performed in ambient conditions (relative humidity 45.5±5%, 21±1° C.) with a single nozzle using firing voltage of 35 V. The cartridge temperature was 30° C., and the drops were deposited at a drop spacing of 10 μm, 20 μm and 30 μm. The vitamins were printed in squares of 1 cm×1 cm on normal copy paper (n=6) and on multilayer curtain coated paper (n=1). […] Each printed area was immersed into predetermined amount of water and vigorously shaken. […] The calibration curves were done in water, as well.

| Vitamin B2 dose, measured (drop spacing 10, 4 h incubation in water, 267 nm, theoretical 0.32 mg) | Vitamin B2 dose, measured (drop spacing 10, 4 h incubation in water, 373 nm, theoretical 0.32 mg) | Vitamin B2 dose, measured (drop spacing 10, second set of rows (no time heading printed), 267 nm, theoretical 0.32 mg) | Vitamin B2 dose, measured (drop spacing 10, second set of rows (no time heading printed), 373 nm, theoretical 0.32 mg) | Vitamin B2 dose, measured (drop spacing 20, 4 h incubation in water, 267 nm, theoretical 0.08 mg) | Vitamin B2 dose, measured (drop spacing 20, 4 h incubation in water, 373 nm, theoretical 0.08 mg) | Vitamin B2 dose, measured (drop spacing 20, second set of rows (no time heading printed), 267 nm, theoretical 0.08 mg) | Vitamin B2 dose, measured (drop spacing 20, second set of rows (no time heading printed), 373 nm, theoretical 0.08 mg) | Vitamin B2 dose, measured (drop spacing 30, 4 h incubation in water, 267 nm, theoretical 0.035 mg) | Vitamin B2 dose, measured (drop spacing 30, 4 h incubation in water, 373 nm, theoretical 0.035 mg) | Vitamin B2 dose, measured (drop spacing 30, second set of rows (no time heading printed), 267 nm, theoretical 0.035 mg) | Vitamin B2 dose, measured (drop spacing 30, second set of rows (no time heading printed), 373 nm, theoretical 0.035 mg) | Vitamin B3 dose, measured (drop spacing 10, 4 h incubation in water, 1 cm x 1 cm printed area, theoretical 0.501 mg) | Vitamin B3 dose, measured (drop spacing 10, 24 h incubation in water, theoretical 0.501 mg) | Vitamin B3 dose, measured (drop spacing 20, 4 h incubation in water, 1 cm x 1 cm printed area, theoretical 0.125 mg) | Vitamin B3 dose, measured (drop spacing 20, 24 h incubation in water, theoretical 0.125 mg) | Vitamin B3 dose, measured (drop spacing 30, 4 h incubation in water, 1 cm x 1 cm printed area, theoretical 0.056 mg) | Vitamin B3 dose, measured (drop spacing 30, 24 h incubation in water, theoretical 0.056 mg) | Compound |
| --- | --- | --- | --- | --- | --- | --- | --- | --- | --- | --- | --- | --- | --- | --- | --- | --- | --- | --- |
| 0.6255 mg | 0.6459 mg | 0.5847 mg | 0.6141 mg | 0.1337 mg | 0.1403 mg | 0.1199 mg | 0.1276 mg | 0.0623 mg | 0.0658 mg | 0.0521 mg | 0.0560 mg |  |  |  |  |  |  | Cc1cc2nc3c(=O)[nH]c(=O)nc-3n(C[C@H](O)[C@H](O)[C@H](O)COP(=O)(O)O)c2cc1C [Vitamin B2, riboflavin sodium phosphate] |
|  |  |  |  |  |  |  |  |  |  |  |  | 0.7594 mg | 0.7323 mg | 0.2213 mg | 0.2142 mg | 0.0717 mg | 0.0687 mg | O=C(O)c1cccnc1 [Vitamin B3, niacin] |
